Patent US5589568A (priority 1994, dated 1996)
Where no end group is shown, it is not given here.

Columns and labels:
Go = target: T1, Go (Bos taurus, UniProt P08239); assay: steady state GTPase activity of Go in phospholipid vesicles; format: biochemical, bovine; conditions: for Turnover number Go 10 μg/ml: 10 μg/ml amine; for Turnover number Go 10 μg/ml / Turnover number Go 100 μg/ml / GTPase Go 10 μM / GTPase Go 100 μM: 15 min at 20° C.; for Turnover number Go 10 μg/ml / GTPase Go 10 μM / GTPase Go 100 μM: PE/PC/PS vesicles; for Turnover number Go 100 μg/ml: 100 μg/ml amine; for GTPase Go 10 μM: 10 μM peptide; for GTPase Go 100 μM: 100 μM peptide; for ability to activate Gi and Go (in words): GTPase, both Gi and Go, gramicidin S and dynorphin at 10 μM
T1 construct: proteins were extracted from bovine cerebral cortical membranes; from tissue; host or cells: bovine brain (cerebral cortical membranes)
T1 sequence (P08239 2-354 limits assumed): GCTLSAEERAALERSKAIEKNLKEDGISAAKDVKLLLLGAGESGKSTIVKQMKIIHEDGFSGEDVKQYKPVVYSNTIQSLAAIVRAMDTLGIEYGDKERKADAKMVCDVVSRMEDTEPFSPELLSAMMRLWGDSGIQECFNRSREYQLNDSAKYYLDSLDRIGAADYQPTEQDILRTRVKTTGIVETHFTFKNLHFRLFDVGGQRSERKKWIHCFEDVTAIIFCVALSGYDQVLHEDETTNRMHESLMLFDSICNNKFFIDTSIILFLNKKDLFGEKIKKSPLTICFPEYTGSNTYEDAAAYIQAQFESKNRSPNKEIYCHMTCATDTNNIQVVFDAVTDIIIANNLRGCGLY
T1 sequence (P62871 2-340 partner limits assumed): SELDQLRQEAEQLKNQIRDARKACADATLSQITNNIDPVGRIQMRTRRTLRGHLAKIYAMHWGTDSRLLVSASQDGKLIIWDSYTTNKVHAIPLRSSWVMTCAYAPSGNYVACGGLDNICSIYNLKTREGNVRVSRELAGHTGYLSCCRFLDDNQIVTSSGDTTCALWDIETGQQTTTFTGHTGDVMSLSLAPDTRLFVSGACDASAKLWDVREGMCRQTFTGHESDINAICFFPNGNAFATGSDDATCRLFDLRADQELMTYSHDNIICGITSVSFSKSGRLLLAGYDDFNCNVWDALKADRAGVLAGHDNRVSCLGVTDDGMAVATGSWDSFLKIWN
T1 sequence (P63212 2-68 partner limits assumed): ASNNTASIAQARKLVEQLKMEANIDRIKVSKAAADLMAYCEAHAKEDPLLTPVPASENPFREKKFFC
From the text: (§1) G proteins were reconstituted into phospholipid vesicles composed of dioleoyl-PC/bovine brain PS/1-palmitoyl,2-oleoyl-PE (3:4:3) as reported previously by Higashijima et al., 1988, incorporated herein by reference.

Gi = assay: steady state GTPase activity of Gi in phospholipid vesicles; format: biochemical, rabbit; conditions: for Turnover number Gi 10 μg/ml: 10 μg/ml amine; for Turnover number Gi 10 μg/ml / Turnover number Gi 100 μg/ml / GTPase Gi 10 μM / GTPase Gi 100 μM: 30 min at 30° C.; for Turnover number Gi 100 μg/ml: 100 μg/ml amine; for GTPase Gi 10 μM: 10 μM peptide; for GTPase Gi 10 μM / GTPase Gi 100 μM: PE/PC/PS vesicles; for GTPase Gi 100 μM: 100 μM peptide;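 as to all read-outs here: Steady-state GTP hydrolysis by Gi measured in a detergent-free buffer containing 1.1 mM MgSO4 plus the specified guanine nucleotide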
Protocol: as §1
The concentration of free Mg^2+ in assay medium that contains 5 mM EDTA and no added Mg^2+ is estimated to be 0.1-0.2 nM according to Brandt et al., 1988 and 1983.

Gs = Gs (Homo sapiens, UniProt P63092); assay: steady state GTPase activity of Gs; format: biochemical; conditions: Table IV; read-out: Gs af. (apparent affinity, estimated by EC50 of GTPase activity)
Sequence of Gs (P63092 whole entry): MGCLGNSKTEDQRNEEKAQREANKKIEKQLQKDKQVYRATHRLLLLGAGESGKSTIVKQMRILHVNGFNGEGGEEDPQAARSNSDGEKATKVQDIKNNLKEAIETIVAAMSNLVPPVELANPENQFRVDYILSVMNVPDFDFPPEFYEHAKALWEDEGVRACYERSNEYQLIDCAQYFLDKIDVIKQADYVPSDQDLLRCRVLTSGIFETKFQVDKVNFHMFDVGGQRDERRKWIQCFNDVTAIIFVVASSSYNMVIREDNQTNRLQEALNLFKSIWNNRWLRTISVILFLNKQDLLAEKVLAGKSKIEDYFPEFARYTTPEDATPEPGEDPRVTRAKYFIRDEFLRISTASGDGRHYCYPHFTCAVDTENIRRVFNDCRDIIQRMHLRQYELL
Protocol: Methods for the assay of steady state GTP hydrolysis and GTPγS binding have been described previously by Higashijima, 1987, and Ferguson, 1986, and incorporated herein by reference. Unless noted otherwise, assays of steady state GTP hydrolysis and of the binding and dissociation of guanine nucleotides were carried out in the buffer described previously, but without detergent and with 1.1 mM MgSO4 and the nucleotide specified in the text. When necessary, the concentration of free Mg^2+ was adjusted using EDTA buffers as described previously by Higashijima, 1987, and incorporated herein by reference.
The data set forth in the following tables represent data generated by the inventors employing the steady state GTP hydrolysis, expressed as molar turnover numbers, are described herein under the "Assay" section of the Experimental Procedures in Example 1. The data has been classified according to the criteria outlined below and the effects of each peptide and modified variant on Go, Gi, and Gs have been tabulated. Table III below sets forth data generated for various mastoparan analogues designed by the inventors, in comparison with the various naturally-occurring mastoparans (e.g., MP, MP-A and MP-T). Table IV sets forth similar data generated for various receptor-based peptides designed by the inventors based on a consideration of various G-protein linked receptors.
Apparent affinity (af.) and apparent efficacy (ef.) were estimated by EC50 and maximum turnover number of GTPase activity.

## CCCCCCCCCCCCCC[N+](C)(C)Cc1ccccc1.[Cl-] [BAC (C14), reference compound]
Go
  Turnover number Go 10 μg/ml: 0.9 min⁻¹
  Turnover number Go 100 μg/ml: 0.2 min⁻¹
Gi
  Turnover number Gi 10 μg/ml: 0.04 min⁻¹
  Turnover number Gi 100 μg/ml: < 0.01 min⁻¹

## CCCCCCCCCCCCCCCC[N+](C)(C)Cc1ccccc1.[Cl-] [BAC (C16 ), reference compound]
Go
  Turnover number Go 10 μg/ml: 1.4 min⁻¹
  Turnover number Go 100 μg/ml: 0.08 min⁻¹
Gi
  Turnover number Gi 10 μg/ml: 0.04 min⁻¹
  Turnover number Gi 100 μg/ml: < 0.01 min⁻¹

## CCCCCCCCCCCCCCCCCC[N+](C)(C)Cc1ccccc1.[Cl-] [BAC (C18 ), reference compound]
Go
  Turnover number Go 10 μg/ml: 1.1 min⁻¹
  Turnover number Go 100 μg/ml: 0.3 min⁻¹
Gi
  Turnover number Gi 10 μg/ml: 0.03 min⁻¹
  Turnover number Gi 100 μg/ml: < 0.01 min⁻¹

## CCCC[N+](CCCC)(CCCC)Cc1ccccc1.[Cl-] [BzBu3 NCl, reference compound]
Go
  Turnover number Go 10 μg/ml: 0.07 min⁻¹
  Turnover number Go 100 μg/ml: 0.07 min⁻¹
Gi
  Turnover number Gi 10 μg/ml: 0.04 min⁻¹
  Turnover number Gi 100 μg/ml: 0.04 min⁻¹

## CCCCCCCCCCCC[N+](C)(C)C.[Cl-] [C12 Me3 NCl, reference compound]
Go
  Turnover number Go 10 μg/ml: 0.1 min⁻¹
  Turnover number Go 100 μg/ml: 0.5 min⁻¹
Gi
  Turnover number Gi 10 μg/ml: 0.04 min⁻¹
  Turnover number Gi 100 μg/ml: 0.04 min⁻¹

## CCCCCCCCCCCCN [C12 NH3 Cl, dodecylamine]
Go
  Turnover number Go 10 μg/ml: 0.18 min⁻¹
  Turnover number Go 100 μg/ml: 0.61 min⁻¹
Gi
  Turnover number Gi 10 μg/ml: 0.06 min⁻¹
  Turnover number Gi 100 μg/ml: 0.31 min⁻¹
Gi; Table III
  stimulation of Gi by amines (in words): stimulated Gi significantly

## CCCCCCCCCCCCCCCCCC[N+](C)(C)C.[Cl-] [C18 Me3 NCl, reference compound]
Go
  Turnover number Go 10 μg/ml: 0.61 min⁻¹
  Turnover number Go 100 μg/ml: < 0.01 min⁻¹
Gi
  Turnover number Gi 10 μg/ml: 0.04 min⁻¹
  Turnover number Gi 100 μg/ml: < 0.01 min⁻¹

## CC[C@H](C)[C@H](NC(=O)CN)C(=O)NCC(=O)N[C@@H](C)C(=O)N[C@H](C(=O)N[C@@H](CC(C)C)C(=O)N[C@@H](CCCCN)C(=O)N[C@H](C(=O)N[C@@H](CC(C)C)C(=O)N[C@H](C(=O)N[C@H](C(=O)NCC(=O)N[C@@H](CC(C)C)C(=O)N1CCC[C@H]1C(=O)N[C@@H](C)C(=O)N[C@@H](CC(C)C)C(=O)N[C@H](C(=O)N[C@@H](CO)C(=O)N[C@@H](Cc1c[nH]c2ccccc12)C(=O)N[C@H](C(=O)N[C@@H](CCCCN)C(=O)N[C@@H](CCCNC(=N)N)C(=O)N[C@@H](CCCCN)C(=O)N[C@@H](CCCNC(=N)N)C(=O)N[C@@H](CCC(N)=O)C(=O)N[C@@H](CCC(N)=O)C(N)=O)[C@@H](C)CC)[C@@H](C)CC)[C@@H](C)O)[C@@H](C)O)C(C)C)C(C)C [Melittin, reference compound]
Go
  GTPase Go 10 μM: 0.63 min⁻¹
  GTPase Go 100 μM: 0.56 min⁻¹
  ability to activate Gi and Go (in words): potency and efficacy roughly equivalent to that of mastoparan
Gi
  GTPase Gi 10 μM: 0,37 min^-1
  GTPase Gi 100 μM: 0.40 min⁻¹

## NC(=O)[C@@H]1CCCN1C(=O)[C@H](Cc1cnc[nH]1)NC(=O)[C@@H]1CCC(=O)N1 [TRH, thyrotropin releasing hormone, reference compound]
Go
  GTPase Go 100 μM: 0.06 min⁻¹
Gi
  GTPase Gi 100 μM: 0.03 min⁻¹

## Ac-WKKLLKLLKKLLKL-NH2 [CBP6, reference compound]
Go
  GTPase Go 10 μM: 0.76 min⁻¹
  GTPase Go 100 μM: 0.38 min⁻¹
  ability to activate Gi and Go (in words): quite active
Gi
  GTPase Gi 10 μM: 0.51 min⁻¹
  GTPase Gi 100 μM: 0.06 min⁻¹

## Angiotensin II (DRVYIHPF; Angiotensin-2; UniProt P01019 25-32, looked up) [reference compound]
Go
  GTPase Go 100 μM: 0.31 min⁻¹
Go; at higher concentrations, G protein not named in the sentence (Gi and Go tested)
  stimulation of GTPase activity: more than 3 fold
Gi
  GTPase Gi 100 μM: 0.23 min⁻¹

## Calcitonin [reference compound]
Go
  GTPase Go 100 μM: 0.09 min⁻¹
Gi
  GTPase Gi 100 μM: 0.01 min⁻¹

## Dynorphin [reference compound]
Go
  GTPase Go 10 μM: 0.13 min⁻¹
  GTPase Go 100 μM: 0.33 min⁻¹
  ability to activate Gi and Go (in words): somewhat stimulatory
Gi
  GTPase Gi 100 μM: 0.10 min⁻¹

## Gramicidin S [reference compound]
Go
  GTPase Go 10 μM: 0.17 min⁻¹
  GTPase Go 100 μM: 0.47 min⁻¹
  ability to activate Gi and Go (in words): somewhat stimulatory
Gi
  GTPase Gi 10 μM: 0.13 min⁻¹
  GTPase Gi 100 μM: 0.31 min⁻¹

## INFKALAALAKKLL-NH2 [MAS22]
Go
  EC50: 10 to 30 µM
Gs
  EC50: 3 to 10 µM

## INLAALAALAKALL-NH2 [ER4]
Go
  EC50: 3 to 10 µM
Gs
  EC50: 3 to 10 µM

## INLAALAALAKKLL-NH2 [Mas19]
Go
  EC50: 3 to 10 µM
Gs
  EC50: 3 to 10 µM

## INLKAAAALAKKLL-NH2 [MAS16]
Go
  EC50: 10 to 30 µM
Gs
  EC50: 3 to 10 µM

## INLKAFAALAKKLL-NH2 [MAS23]
Go
  EC50: 10 to 30 µM
Gs
  EC50: 3 to 10 µM

## INLKAIAAFAKKLL-NH2 [MP-T, reference compound]
Go
  EC50: 3 to 10 µM
Gs
  EC50: 10 to 30 µM

## INLKAKAALAKKLL-NH2 [Mas17]
Go
  EC50: 30 to 100 µM
Gs
  EC50: 3 to 10 µM

## INLKALAAAAKKLL-NH2 [MAS12]
Go
  EC50: 10 to 30 µM
Gs
  EC50: 3 to 10 µM

## INLKALAAKAKKLL-NH2 [MAS13]
Go
  EC50: 30 to 100 µM
Gs
  EC50: 3 to 10 µM

## INLKALAALAAALL-NH2 [ER5]
Go
  EC50: 3 to 10 µM
Gs
  EC50: 3 to 10 µM

## INLKALAALAAKLL-NH2 [Mas9]
Go
  EC50: 3 to 10 µM
Gs
  EC50: 30 to 100 µM

## INLKALAALAKALL-NH2 [ER1]
Go
  EC50: 3 to 10 µM
Gs
  EC50: 3 to 10 µM

## INLKALAALAKKLA-NH2 [MAS04]
Go
  EC50: 3 to 10 µM
Gs
  EC50: 3 to 10 µM

## INLKALAALAKNLL-NH2 [ER20]
Go
  EC50: 3 to 10 µM
Gs
  EC50: 10 to 30 µM
